Common to all, as to assay type: functional, cell-based
Experiment [1] in a line: Cytotoxicity against human SCLC cells resistant to cisplatin (SCLC/CDDP).
Experiment [2] deals with N592. The experiment can be described thus: Cytotoxicity against human small-cell lung cancer (SCLC).
For experiment [3], the system named is Tumor Cell line. In words: Tested for the inhibition of human cancer cell growth (NCI drug-discovery screen.).
Experiment [4] deals with HL-60. The experiment can be described thus: Tested for inhibition against human promyelocytic leukemia cells (HL-60 ).
Experiment [5] deals with CCRF-CEM. The experiment can be described thus: Tested for inhibition against CEM cells. The following applies: Homo sapiens.
The subject of experiment [6] is CCRF-CEM. The experiment can be described thus: Tested for inhibition against CEM/MDR (multidrug resistant) cells. The following applies: Homo sapiens.
Experiment [7] relates to Tumor Cell line. The experiment can be described thus: Tested for the inhibition of human cancer cell growth (NCI drug-discovery screen.); Inactive.

The IC50 is the midpoint of a concentration-inhibition curve. Higher therefore signals weaker potency in that assay.

Active and inactive are the calls of the source. The rule behind the calls is not given here.

In the case of `COc1cccc2c1C(=O)c1c(O)c3c(c(O)c1C2=O)C[C@@](O)(C(=O)CO)C[C@@H]3O[C@H]1C[C@H](N)[C@H](O)[C@H](C)O1` [DOXORUBICIN], the IC50 is 30 nM in experiment [1] (Homo sapiens, SCLC) and 40 nM in experiment [2] (Homo sapiens, N592).
`CN(C)CCCOc1cc(O)c2c3c(oc2c1)C(=O)c1ccccc1C3=O`: the IC50 in experiment [3] is 100 nM; in experiment [1] (Homo sapiens, SCLC), 680 nM; in experiment [4] it was 45 nM; in experiment [2] (Homo sapiens, N592), 680 nM.
Regarding `CN(C)CCOc1cc2oc3c(c2cc1Cl)C(=O)c1ccccc1C3=O`, the IC50 in experiment [3] is 1000 nM; in experiment [5], 250 nM; in experiment [1] (Homo sapiens, SCLC) it was 620 nM; in experiment [4] it was 240 nM; in experiment [6] it was 300 nM; in experiment [2] (Homo sapiens, N592) it was 370 nM.
On to `CCN(CC)CCOc1cc(O)c2c3c(oc2c1)C(=O)c1ccccc1C3=O`, for which the IC50 in experiment [3] was 100 nM; in experiment [1] (Homo sapiens, SCLC), 480 nM; in experiment [4] it was 98 nM; in experiment [2] (Homo sapiens, N592), 240 nM.
`O=C1c2c(O)ccc(O)c2C(=O)c2c(NCCNCCO)ccc(NCCNCCO)c21` [MITOXANTRONE]: the IC50 was 30 nM in experiment [1] (Homo sapiens, SCLC) and 20 nM in experiment [2] (Homo sapiens, N592).
Regarding `O=C1c2ccccc2C(=O)c2c1oc1cc(O)c(Cl)cc21`, the IC50 was 10000 nM in experiment [3]; > 3400 nM in experiment [1] (Homo sapiens, SCLC); 6090 nM in experiment [4]; > 3400 nM in experiment [2] (Homo sapiens, N592).
With CISPLATIN, the values for the IC50 in experiment [1] (sclc) and in experiment [2] (n592) were 6700 nM and 670 nM, respectively.
As for `CN(C)CCOc1ccc2c3c(oc2c1)C(=O)c1ccccc1C3=O`, the IC50 in experiment [3] was 10000 nM; in experiment [5], 200 nM; in experiment [1] (Homo sapiens, SCLC), 940 nM; in experiment [4], 300 nM; in experiment [6], 150 nM; in experiment [2] (Homo sapiens, N592), 730 nM.
Regarding `O=C1c2ccccc2C(=O)c2c1oc1cc(O)c3ccccc3c21`, the IC50 was > 3200 nM in experiment [1] (Homo sapiens, SCLC); 80600 nM in experiment [4]; > 3200 nM in experiment [2] (Homo sapiens, N592).
For `Cc1cc(O)cc2oc3c(c12)C(=O)c1ccccc1C3=O`, the IC50 was > 3500 nM in experiment [1] (Homo sapiens, SCLC); 6650 nM in experiment [4]; > 3500 nM in experiment [2] (Homo sapiens, N592). Also, the “Log IC50” value in experiment [7] was “inactive”.
Regarding `O=C1c2ccccc2C(=O)c2c1oc1cc(O)cc(O)c21`, the IC50 was 1000 nM in experiment [3]; 500 nM in experiment [5]; 1280 nM in experiment [1] (Homo sapiens, SCLC); 220 nM in experiment [4]; 600 nM in experiment [6]; 1030 nM in experiment [2] (Homo sapiens, N592).
Regarding `COc1cc([C@@H]2c3cc4c(cc3[C@@H](O[C@@H]3O[C@@H]5CO[C@@H](C)O[C@H]5[C@H](O)[C@H]3O)[C@H]3COC(=O)[C@H]23)OCO4)cc(OC)c1O` [ETOPOSIDE], the IC50 in experiment [1] (Homo sapiens, SCLC) was found to be 1300 nM; in experiment [2] (Homo sapiens, N592), 500 nM.
As for `CN(C)CCCOc1ccc2c3c(oc2c1)C(=O)c1ccccc1C3=O`, the IC50 in experiment [3] was 10000 nM; in experiment [1] (Homo sapiens, SCLC), 2600 nM; in experiment [4], 340 nM; in experiment [2] (Homo sapiens, N592) it was 1300 nM.
Turning to `CN(C)CCOc1cc2oc3c(c2c2ccccc12)C(=O)c1ccccc1C3=O`, the IC50 in experiment [1] (Homo sapiens, SCLC) was 1950 nM; in experiment [4], 870 nM; in experiment [2] (Homo sapiens, N592) it was 1300 nM. The “Log IC50” value in experiment [7] is “inactive”.
Take `CN(C)CCOc1cc(O)c2c3c(oc2c1)C(=O)c1ccccc1C3=O`: the IC50 in experiment [3] was 100 nM; in experiment [1] (Homo sapiens, SCLC), 2560 nM; in experiment [4] it was 46 nM; in experiment [2] (Homo sapiens, N592) it was 2130 nM.
For `O=C1c2ccccc2C(=O)c2c1oc1cc(O)ccc21` the same measures were 10000 nM, > 3800 nM, 7780 nM and > 3800 nM.
In the case of `Cc1cc(OCCN(C)C)cc2oc3c(c12)C(=O)c1ccccc1C3=O`, the IC50 is > 2600 nM in experiment [1] (Homo sapiens, SCLC); 1800 nM in experiment [4]; > 2600 nM in experiment [2] (Homo sapiens, N592).
Take `CC[C@]1(O)C[C@@H]2CN(CCc3c([nH]c4ccccc34)[C@@](C(=O)OC)(c3cc4c(cc3OC)N(C)[C@H]3[C@@](O)(C(=O)OC)[C@H](OC(C)=O)[C@]5(CC)C=CCN6CC[C@]43[C@@H]65)C2)C1` [VINBLASTINE]: the IC50 is 5 nM in experiment [1] (Homo sapiens, SCLC) and 4 nM in experiment [2] (Homo sapiens, N592).
In the case of `O=c1[nH]cc(F)c(=O)[nH]1` [FLUOROURACIL], the IC50 in experiment [1] (Homo sapiens, SCLC) worked out at 8400 nM; in experiment [2] (Homo sapiens, N592), 5400 nM.
Regarding `CN(C)CCCOc1cc2oc3c(c2c2ccccc12)C(=O)c1ccccc1C3=O`, the concentration for half-maximal inhibition (IC50) in experiment [1] (Homo sapiens, SCLC) is > 2500 nM; in experiment [4], 1390 nM; in experiment [2] (Homo sapiens, N592), > 2500 nM. Also, the “Log IC50” value in experiment [7] is “inactive”.
In the case of `O=C1c2ccccc2C(=O)c2c1oc1cc3c(cc21)OCO3`, the IC50 in experiment [1] (Homo sapiens, SCLC) is > 40300 nM; in experiment [4], > 100000 nM; in experiment [2] (Homo sapiens, N592) it was > 40300 nM.
For the compound `CN(C)CCCOc1cc2oc3c(c2cc1Cl)C(=O)c1ccccc1C3=O`, the IC50 in experiment [3] is 10000 nM; in experiment [5] it was 170 nM; in experiment [1] (Homo sapiens, SCLC), 590 nM; in experiment [4], 280 nM; in experiment [6] it was 150 nM; in experiment [2] (Homo sapiens, N592), 590 nM.
In the case of `CC(C)N(CCOc1cc(O)c2c3c(oc2c1)C(=O)c1ccccc1C3=O)C(C)C`, the 50% inhibitory concentration (IC50) in experiment [3] was 1000 nM; in experiment [1] (Homo sapiens, SCLC), 1130 nM; in experiment [4], 89 nM; in experiment [2] (Homo sapiens, N592), 220 nM.
